The target in one data set is SIK3 (h) (Homo sapiens (Human), UniProt Q9Y2K2). Put plainly: SIK3 kinase activity, Eurofins KinaseProfiler ([γ-33P]-ATP filter assay). It counts as biochemical. The following applies: Table 6, macrocycles. The procedure: (§1) SIK1, 2 and 3 kinase activity was assessed using a Eurofins Cerep S.A. (‘Eurofins’) KinaseProfiler. All compounds were prepared to 50× final assay concentration in 100% DMSO. This working stock of the compound was added to the assay well as the first component in the reaction, followed by the remaining components as detailed in the general assay protocols below. In the standard KinaseProfiler service, there is no pre-incubation step between the compound and the kinase prior to initiation of the reaction. The positive control well contains all components of the reaction, except the compound of interest; however, DMSO (at a final concentration of 2%) is included in these wells to control for solvent effects. The blank wells contain all components of the reaction, with a reference inhibitor replacing the compound of interest. This abolishes kinase activity and establishes the base-line (0% kinase activity remaining).
SIK3 (h) was incubated with 8 mM MOPS pH 7.0, 0.2 mM EDTA, 100 μM […], 10 mM Magnesium acetate and [γ-33P-ATP](specific activity and concentration as required). The reaction was initiated by the addition of the Mg/ATP mix. After incubation for 40 minutes at room temperature, the reaction is stopped by the addition of phosphoric acid to a concentration of 0.5%, […] of the reaction was then spotted onto a P30 filtermat and washed four times for 4 minutes in 0.425% phosphoric acid and once in methanol prior to drying and scintillation counting.

Data set [1] deals with living human skin explants. The experiment in a line: Cell viability of living human skin explants, Masson's trichrome staining (Example 8). The data set is classed as cell-based. The following applies: 1% topical in vehicle E. The procedure: All the tested products were diluted in the vehicle noted as E (Ethanol 65%, Propylene glycol 25%, Transcutol 10%). The diluted solutions were stored at 4° C. within the study period. 36 human skin explants of an average diameter of 11 mm (+1 mm) were prepared on an abdoplasty coming from a person (reference: P2462-AB53) with a III phototype. The explants were kept in survival in BEM culture medium (BIO-EC's Explants Medium) at 37° C. in a humid, 5%-CO2 atmosphere. Study is performed on human skin tissue, obtained from surgical residues in full respect with the Declaration of Helsinki and the article L. 1243-4 of the French Public Health Code.
The excipient E and the tested products were applied topically at a rate of 2 μL per 1 cm^2 explant (˜2 mg/cm^2) and spread and gently rubbed for 10 seconds using a small spatula on day 0 (DO), D3, D5, D7 and D10. […] The culture medium was half renewed (1 ml per well) on D3, D5, D7 and D10. On D0, D3, D4, D5, D6, D7 and D10, the culture media of the irradiated explants (UV) were replaced by HBSS (Hank's Balanced Saline Solution; 1 ml per explant). Then, the explants of the “UV” batch were irradiated using a UV simulator Vibert Lourmat RMX 3W with a dose of 2.25 J/cm^2 of UVA (with 6-8% of UVB) corresponding to 0.5 MED (minimal erythemal dose) on a skin with a III phototype. At the end of the UV irradiation, the explants form the batch TUV were put back in 2 mL of BEM medium. On D0, the 3 explants from the batch TO were collected and cut in two parts. Half was fixed in buffered formalin solution and half was frozen at −80° C. On D10, 3 explants from the concerned batches were collected and treated in the same way than in DO. According to the dispositions mentioned in the study plan, the days of treatments, irradiations and sampling were adjusted to the schedule of working days. After fixation for 24 hours in buffered formalin, the samples were dehydrated and impregnated in paraffin using a Leica PEARL dehydration automat. The samples were embedded using a Leica EG 1160 embedding station. 5-μm-thick sections were made using a Leica RM 2125 Minot-type microtome, and the sections were mounted on Superfrost® histological glass slides. The frozen samples were cut into 7-μm-thick sections using a Leica CM 3050 cryostat. Sections were then mounted on Superfrost®, plus silanized glass slides. The microscopical observations were realized using a Leica DMLB or Olympus BX43 microscope. Pictures were digitized with a numeric DP72 Olympus camera with CellSens storing software.
The cell viability of the epidermal and dermal structures was assessed by microscopical observation of formalin-fixed paraffin-embedded (FFPE) skin sections after Masson's trichrome staining, Goldner variant.

The conditions of data set [2]: ester bond.
The next data set concerns the target SIK2 (h) (Homo sapiens (Human), UniProt Q9H0K1). Put plainly: SIK2 kinase activity, Eurofins KinaseProfiler ([γ-33P]-ATP filter assay). The data set is classed as biochemical. The following applies: Table 6, macrocycles; read-out: IC50 nM SIK2. As for the experimental part: as §1
SIK2 (h) was incubated with 8 mM MOPS pH 7.0, 0.2 mM EDTA, 100 μM […], 10 mM Magnesium acetate and [γ-33P-ATP](specific activity and concentration as required). The reaction was initiated by the addition of the Mg/ATP mix. After incubation for 40 minutes at room temperature, the reaction was stopped by the addition of phosphoric acid to a concentration of 0.5%, 10 μL of the reaction was then spotted onto a P30 filtermat and washed four times for 4 minutes in 0.425% phosphoric acid and once in methanol prior to drying and scintillation counting.

In another data set the target is SIK1 (Homo sapiens (Human), UniProt P57059). The experiment in a line: cell-based.
The next data set concerns B16 4A5 cells. Put plainly: B16 4A5 cell viability, MTS assay. It counts as cell-based, mouse. The following applies: 72 h, compared with DMSO 0.1% control; for viability of cells: 5 μg/mL. The procedure: B16 4A5 cells were seeded in 24-well plates at 20,000 cells/well, 24 h before the beginning of the treatment with test compounds at 5 concentrations, in triplicates (n=3). […] Additionally, DMSO at 0.1%, used for solubilization of the test compounds, was tested in parallel. The treatments were performed in culture medium containing only 1% of FBS. […] The effects of the compounds on B16 4A5 viability was assessed. To this purpose, cells were incubated during 72 h with 5 concentrations of the compounds, were left untreated, treated with SDS or with DMSO 0.1%.
Background: Tetrazolium assays rely on reduction of a dye to a coloured formazan, in cell work by metabolically active cells.

The next data set deals with SIK (h) / SIK1 (Homo sapiens (Human), UniProt P57059). Put plainly: SIK1 kinase activity, Eurofins KinaseProfiler ([γ-33P]-ATP filter assay). The following applies: Table 6, macrocycles. It counts as biochemical. The procedure:
as §1
SIK (h) was incubated with 8 mM MOPS pH 7.0, 0.2 mM EDTA, 100 μM […], 10 mM Magnesium acetate and [γ-33P]-ATP (specific activity and concentration as required). The reaction was initiated by the addition of the Mg/ATP mix. After incubation for 40 minutes at room temperature, the reaction was stopped by the addition of phosphoric acid to a concentration of 0.5%, 10 μL of the reaction was then spotted onto a P30 filtermat and washed four times for 4 minutes in 0.425% phosphoric acid and once in methanol prior to drying and scintillation counting.

Data set [3] concerns living human skin explants. The data set is classed as cell-based.
Data set [4] deals with living human skin explants. Put plainly: Pigmentation of living human skin explants ex vivo (Example 10). The data set is classed as cell-based. The following applies: 15 mM and 21 mM, 5 μL/cm2 topically each day for 6 days. As for the experimental part: SLT-045 (3, 7, 15, 21 mM; 5 μL/cm2) in vehicle (44.9% DMSO/37.5% EtOH/17.4% propylene glycol) was applied topically applied using a Pasteur pipette, each day for 6 days using triplicate skin samples (8 mm punch).

The subject of data set [5] is living human skin explants. Put plainly: Melanin in living human skin explants, Fontana-Masson staining (Example 9). It counts as cell-based. The following applies: for melanin content (staining, microscopical observation): Propylene glycol 30%; for surface occupied by melanin in the basal cell layer of the epidermis: vehicle E 7.9. The procedure:
All the tested products were diluted in the vehicle (Ethanol 70%, Propylene glycol 30%). 24 human skin explants of an average diameter of […] were prepared on an abdoplasty coming from a person (reference: P2511-AB43) with a II phototype. The explants were kept in survival in BEM culture medium (BIO-EC's Explants Medium) at 37° C. in a humid, 5%-CO2 atmosphere. Products were applied topically at a rate of 2 μL per 1 cm^2 explant (2 mg/cm^2) and spread and gently rubbed for 10 seconds using a small spatula on day 0 (D0), D2, D5 and D7. […] The culture medium was half renewed (1 ml per well) on D2, D5 and D7. After fixation for 24 hours in buffered formalin, the samples were dehydrated and impregnated in paraffin using a Leica PEARL dehydration automat. The samples were embedded using a Leica EG 1160 embedding station. 5-μm-thick sections were made using a Leica RM 2125 Minot-type microtome, and the sections were mounted on Superfrost® histological glass slides. The frozen samples were cut into 7-μm-thick sections using a Leica CM 3050 cryostat. Sections were then mounted on Superfrost® plus silanized glass slides. The microscopical observations were realized using a Leica DMLB or Olympus BX43 microscope. Pictures were digitized with a numeric DP72 Olympus camera with CellSens storing software. Melanin was visualized after silver impregnation according to Masson's Fontana staining method on FFPE skin sections. The staining was assessed by microscopical observation (FIG. 5) and by image analysis (FIG. 6).

Entries after “also recorded” stand apart in the source; their conditions may differ. Read-outs that look alike come from different tables or passages of the source.

Sequence of SIK1 (P57059 whole entry): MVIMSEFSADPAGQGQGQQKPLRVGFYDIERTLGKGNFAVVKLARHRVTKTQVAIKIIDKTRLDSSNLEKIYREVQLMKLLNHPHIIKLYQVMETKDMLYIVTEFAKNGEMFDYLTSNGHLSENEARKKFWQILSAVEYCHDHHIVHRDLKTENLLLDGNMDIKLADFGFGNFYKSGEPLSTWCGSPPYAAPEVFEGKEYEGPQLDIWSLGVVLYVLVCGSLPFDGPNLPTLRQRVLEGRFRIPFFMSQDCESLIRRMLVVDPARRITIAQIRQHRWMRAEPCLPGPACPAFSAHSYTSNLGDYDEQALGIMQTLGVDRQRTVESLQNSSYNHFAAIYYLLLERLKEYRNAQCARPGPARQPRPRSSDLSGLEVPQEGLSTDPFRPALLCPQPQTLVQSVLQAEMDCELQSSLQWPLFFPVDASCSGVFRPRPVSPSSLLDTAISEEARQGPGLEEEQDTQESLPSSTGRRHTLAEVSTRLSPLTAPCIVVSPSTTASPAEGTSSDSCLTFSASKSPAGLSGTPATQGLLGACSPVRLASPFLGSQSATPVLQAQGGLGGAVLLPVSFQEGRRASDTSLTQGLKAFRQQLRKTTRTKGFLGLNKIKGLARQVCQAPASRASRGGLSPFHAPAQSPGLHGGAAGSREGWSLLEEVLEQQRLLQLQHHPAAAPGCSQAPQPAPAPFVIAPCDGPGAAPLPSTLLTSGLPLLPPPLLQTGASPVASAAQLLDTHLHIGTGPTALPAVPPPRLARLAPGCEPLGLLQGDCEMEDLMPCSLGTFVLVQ

With `Cc1cccc(C)c1N1Cc2cnc3nc2N(CCC(=O)OCc2cc(ccc2N2CCN(C)CC2)N3)C1=O` [SLT-023], the IC50 – broadly, the concentration that inhibits the measured activity by half – at SIK3 (h) amounted to 18 nM; at SIK2 (h), 3 nM; at SIK (h) / SIK1 it was 3 nM. Moreover, the “cell viability of epidermal and dermal structures” value in [1] was “very slightly decreased”. Also, the ring closure, isolated yield in [2] (from Cc1cccc(C)c1N1Cc2cnc(Nc3ccc(N4CCN(C)CC4)c(CO)c3)nc2N(CCC(=O)O)C1=O, 13-membered ring, EDC.HCl/HOBt/DMAP/3A MS, DCM, 8.04 mM, 25.0 °C, 16.0 h) was found to be 33%. Moreover, the response at SIK1 was half-maximal at 86.6 nM (EC50). The cell viability result in the data set with B16 4A5 cells (0.7 μg/mL) is listed as “slightly decreased”. Further, the viability of cells result in the data set on B16 4A5 cells is on record as “slightly diminished”.

In the case of `Cc1cccc(C)c1N1Cc2cnc3nc2N(CCCC(=O)OCc2cc(ccc2N2CCN(C)CC2)N3)C1=O` [SLT-026], the IC50 on SIK3 (h) was 3 nM; at SIK2 (h) it was 2 nM; against SIK (h) / SIK1, 2 nM. The “cell viability of epidermal and dermal structures” value in [1] was “very slightly decreased”. Moreover, in data set [2] (from Cc1cccc(C)c1N1Cc2cnc(Nc3ccc(N4CCN(C)CC4)c(CO)c3)nc2N(CCCC(=O)O)C1=O, 14-membered ring, DCC/DMAP/3A MS, DCM/DMF, 5.37 mM, 25.0 °C, 16.0 h), the ring closure, isolated yield amounted to 9%. The “increase of melanin in the suprabasal layers” value in [3] amounted to 50%. Besides, the EC50 (commonly the concentration that produces a half-maximal response) on SIK1 was 3.24 nM.

Consider `Cc1cccc(C)c1N1Cc2cnc3nc2N(CCCCOC(=O)c2cc(ccc2N2CCN(C)CC2)N3)C1=O` [SLT-042], for which the IC50 against SIK3 (h) turned out to be 2 nM; at SIK2 (h) it was 0.7 nM; at SIK (h) / SIK1, 2 nM. The “cell viability of epidermal and dermal structures” value in [1] is “very slightly decreased”. The same compound showed a ring closure, isolated yield in data set [2] (from Cc1cccc(C)c1N1Cc2cnc(Nc3ccc(N4CCN(C)CC4)c(C(=O)O)c3)nc2N(CCCCO)C1=O, 14-membered ring, 2,4,6-trichlorobenzoyl chloride/TEA, DMAP, toluene/DMF, 5.0 mM, 110.0 °C, 16.0 h) of 22%. Moreover, the “increase of melanin in the suprabasal layers” value in data set [3] is 25%. Further, the response at SIK1 was half-maximal at 2.02 nM (EC50).

Regarding `COC(=O)Cc1cc(Nc2ncc3c(n2)N(CCCO)C(=O)N(c2c(C)cccc2C)C3)ccc1N1CCN(C)CC1` [SLT-045], the visual skin pigmentation result in [4] is reported as “induced a visual skin pigmentation”.

With `Cc1cccc(C)c1N1Cc2cnc3nc2N(CCCOC(=O)Cc2cc(ccc2N2CCN(C)CC2)N3)C1=O` [SLT-048], the entries for the “change of surface occupied by melanin in the basal cell layer vs the vehicle” value in data set [5] (0.2% topical) and in data set [5] (2% topical) were “+24%” and “+56%”, respectively. In addition, the “melanin content (staining, microscopical observation)” value is “slight increase; also recorded: increased” in [5] (0.2% topical in Ethanol 70%) and “moderate increase; also recorded: highly increased” in data set [5] (2% topical in Ethanol 70%). Besides, the “surface occupied by melanin in the basal cell layer of the epidermis” value in data set [5] (0.2% topical) came out at 10.0; in [5] (2% topical), 12.6. The “cell viability of epidermal and dermal structures” value in data set [1] is reported as “very slightly decreased”. The ring closure, isolated yield in data set [2] (from Cc1cccc(C)c1N1Cc2cnc(Nc3ccc(N4CCN(C)CC4)c(CC(=O)O)c3)nc2N(CCCO)C1=O, 14-membered ring, DCC/DMAP/3A MS, DCM/DMF, 25.0 °C, 2.0 h) came to 21%. In addition, the half-maximal inhibitory concentration (IC50) on SIK2 (h) was 0.6 nM. The same compound had an EC50 at SIK1 of 2.58 nM. Besides, in the data set with B16 4A5 cells, the viability of cells result is listed as “slightly diminished”.

The values are drawn from US20250340556A1, “PYRIMIDOPYRIMIDONE COMPOUNDS AND METHODS OF USE THEREOF” (Soltego, Inc., priority 2022, published 2025).
